Entries after “also recorded” stand apart in the source; their conditions may differ.

Two molecules from patent US20030185792A1, “Morphogen analogs of bone morphogenic proteins” (Curis, Inc., priority 1996, published 2003) can be followed below.

The subject of one assay is ROS cells. In words: ROS cell based alkaline phosphatase bioassay. To be noted: for % increase in OP-1 response relative to the absence of peptide: OP-1 1.33 nM. The arrangement: species or system rat. As for the experimental part:
In a first series of experiments, increasing concentrations of peptides F2-2 (FIG. 9A), F2-3 (FIG. 9B), Hn-2 (FIG. 9C) and Hc-2 (FIG. 9D) were added to ROS cells either alone (open bars) or in combination with 40 ng/ml soluble OP-1 (filled bars) and their effect on alkaline phosphatase activity measured. Soluble OP-1 is the form of OP-1 in which the pro-domain is still attached to the mature portion of OP-1 (see WO 94/03600). A basal alkaline phosphatase activity is shown by the line and represents the alkaline phosphatase activity of cells incubated in the absence of both soluble OP-1 and peptide.
(§1) Assay of peptides: The receptor-binding activities of OP-1 synthetic peptides were determined by a radio-ligand receptor assay using ^125I-labeled OP-1 as ligand, and an OP-1 receptor-enriched plasma membrane fraction of ROS cells. The assay is based on competition between radiolabeled OP-1 and unlabeled OP-1 or peptide for binding to membrane-bound receptor. A well characterized ROS cell based in vitro bio-assay was used to examine the effects of OP-1 peptides on basal as well as OP-1 induced cellular alkaline phosphatase activity.
i. ROS Cell Based Alkaline Phosphatase Assay: OP-1 synthetic peptides that bind OP-1 receptors are further analyzed by in vitro bioassay. This allows defining the role of OP-1 peptides at the receptor-binding site. Some of the OP-1 peptides that effectively interact with receptors could inhibit OP-1 induced target cell responsiveness, thereby acting as functional antagonists. Alternatively, they may mimic OP-1 functions inducing alkaline phosphatase activity in ROS cells. Creative BioMolecules has developed and fully validated ROS cell in vitro assay for OP-1. An assay procedure as described earlier is essentially followed to determine the biological activities of OP-1 peptides. In a typical experiment, rat Osteosarcoma (17/2.8) cells are plated in 96 well plates (3.0×10^4 cells/well) and incubated overnight at 37° C. in 5-6% CO2 incubator. Next day, the plates are examined to make sure that cells are healthy & confluent. Cells are treated with increasing concentrations of OP-1 standard (1-10,000 ng/ml) or OP-1 synthetic peptides (0.02-200 μM) alone or with OP-1 standard prepared in medium containing 1% FBS and incubated for 2 days at 37° C. in 5-6% CO2 incubator. The cellular content of alkaline phosphatase activity is determined by the method of Reddi and Huggins. Enzyme estimations are routinely carried out in 96 well plates. Following removal of culture medium, cells are washed with pre-warmed PBS (150 μl) and further incubated in 100 ul of pre-warmed 1% Triton X-100 for 30 minutes at 37 C. Plates are centrifuged for 10 minutes at full speed, and recovered samples (each 15 μl) are assayed for enzyme activity by adding 90 ul p-nitrophenyl phosphate (Sigma) as a substrate in 0.05 M glycine-NaOH buffer, pH 9.3 and incubating for 20 minutes at 37° C. The reaction is stopped by adding 75 μl of 0.2 N NaOH/well and absorbance at 405/490 nm is measured on a Dynatech MR 700 plate reader. Results are expressed as concentration of peptide inhibitor (with antagonist activity) required to give 50% inhibition of maximum response to OP-1 standard. On the other hand, the activities of peptides that stimulate cell responsiveness (with agonist activity) are expressed relative to OP-1 standard. FIG. 23 illustrates the dose-related effects of OP-1 preparations on stimulation of alkaline phosphatase activity as determined in ROS cell based in vitro assay.

The subject of assay [1] is OP-1 receptor-enriched plasma membrane fraction of ROS cells. Briefly: Radioligand receptor assay: displacement of 125I-labeled OP-1 from ROS cell plasma membranes. Type of assay: binding, rat. As for the experimental part: In a second series of experiments, the ability of unlabeled soluble OP-1 and unlabeled peptides F1-2, F2-2, F2-3, H-n2 and H-c2 to displace ^125I labeled soluble OP-1 from ROS cell membranes was measured. The activities of peptides F2-2 and F2-3 relative to soluble OP-1 are shown in FIG. 10A, and the activities of peptides Fi-2, H-n2 and H-c2 relative to soluble OP-1 are shown in FIG. 10B. OP-1 receptor-enriched plasma membranes of ROS cells were incubated for 20 hrs at 4° C. with ^125I-labeled soluble OP-1 and unlabeled peptide. Receptor bound material was separated from unbound material by centrifugation at 39,500×g. The resulting pellet was harvested and washed with 50 mM HEPES buffer, pH 7.4 containing 5 mM MgCl2 and 1 mM CaCl2 Radioactivity remaining in the pellet was determined by means of a gamma counter.
as §1
i. Radio-receptor Assay: The receptor-binding activities of various OP-1 synthetic peptides can be determined by an equilibrium displacement binding isotherm assay using ^125I-labeled OP-1 as ligand and OP-1 receptor-enriched plasma membrane fraction of ROS cells. Highly purified OP-1 can be radioiodinated to a specific activity of 70-78 μCi/ug by a modified procedure of lactoperoxidase method. The percent bindability of radioiodinated OP-1 to excess receptor is 30-37%. Plasma membranes enriched with OP-1 receptors from ROS cells can be isolated as is known in the art. […] In a typical assay, fixed amounts of ^125I-labeled sol. OP-1 (˜80,000 cpm) are incubated with fixed amount of receptor-enriched plasma membrane fraction in the presence (5 μg, for non-specific binding) or absence of excess unlabeled OP-1 (for total binding). Displacement curves are generated with increasing concentrations of OP-1 peptide (0.032-50 μM) or OP-1 standard preparation (5-2000 ng). The assay incubations are carried out in a reaction volume of 300 μl with shaking for 22 hrs. at 4° C. Separation of bound and free ^125I-labeled OP-1 is by centrifugation (39,500×g, 30 minutes). The supernatants are aspirated and pellets are washed before counting in a gamma counter (Packard Instr., Downers Grove, Ill.). The concentration of OP-1 peptide required to give 50% inhibition of total specific binding of ^125I-labeled OP-1 (ED50) is calculated from competitive data.
(In general: In a radioligand displacement assay an active substance lowers the binding of a labelled ligand.)

With “F2-3: SEQ ID No. 19; 16 residues, finger 2 tip 11-residue loop with 5-residue C-terminal extension (CYFDDSSNVICKKYRS; listed as Homo sapiens)”, the “behaviour in the alkaline phosphatase assay (agonist/antagonist)” value with ROS cells (Example 2, alone or with 40 ng/ml soluble OP-1) is given as “weak OP-1 agonists”. In the assay on ROS cells (Example 3, peptide alone, no OP-1), the “effect on basal cell responsiveness (alkaline phosphatase activity)” value was “no significant effect”. For the same molecule, the “effect on OP-1 induced cell responsiveness (agonist/antagonist behaviour)” value in the assay with ROS cells (Example 3, peptide together with OP-1) is recorded as “agonistic manner; also recorded: potentiating the cell responsiveness to OP-1”. For the same molecule, the “peptide concentrations at which OP-1 induced responsiveness is potentiated” value in the assay with ROS cells (Example 3, with OP-1) lay within 0.01 to 1 µM. Moreover, in the assay with ROS cells (Example 3 summary, antagonistic (H-C2) and modulating (F2-3) activity), the “overall judgement of activity (lead peptides)” value is given as “highly active”. In addition, the “% increase in OP-1 response relative to the absence of peptide” value in the assay on ROS cells (peptide 0.01 (unit printed ELM), FIG. 19) amounted to 53%; in the assay on ROS cells (peptide 0.1 (unit printed ELM), FIG. 19), 54%; with ROS cells (peptide 1 ELM (so in the source), FIG. 19), 48%. Also, the “increase of alkaline phosphatase activity relative to soluble OP-1 alone” value in the assay with ROS cells (peptide about 0.01 μM with 40 ng/ml soluble OP-1, FIG. 9B) was “about 20%”. Further, the “effect on basal alkaline phosphatase level” value in the assay on ROS cells (peptide alone, about 0.01 μM, Example 2, FIG. 9B) is on record as “increase the basal alkaline phosphatase level”. For the same molecule, in assay [1] (Example 2, FIGS. 10A and 10B), the “ability to displace 125I-labeled soluble OP-1 from ROS cell membranes” value is “able to completely displace”. The “effect on binding of 125I-labeled OP-1 to the receptor” value in assay [1] (Example 3) is reported as “effectively competed”.

B1: OP-1: osteogenic protein-1, a tissue morphogenic protein of the TGF-β superfamily; mature human OP-1 is SEQ ID No. 4 (protein, listed as Homo sapiens)
chain: CKKHELYVSFRDLGWQDWIIAPEGYAAYYCEGECAFPLNSYMNATNHAIVQTLVHFINPETVPKPCCAPTQLNAISVLYFDDSSNVILKKYRNMVVRACGCH
On to B1, for which, in the assay with ROS cells (FIG. 19, sub-maximal OP-1 (1.33 nM)), the “level of OP-1 response in the absence of peptide” value was “approximately 60 % of maximum”. Moreover, in assay [1] (single class of binding sites in ROS cell plasma membrane preparations), the “affinity (Ka) of OP-1 binding sites” value was 4.38e+09 M⁻¹.
